# Tests used:
# [1] = permeability test through hairless mouse skin (flow-through cell); type: in vitro ADME; conditions: for maximum value of the permeability rate of the drug per unit area of the skin, base agent Acetone: 1% (w/v) solution in acetone as donor; for maximum value of the permeability rate of the drug per unit area of the skin, base agent Acetone / maximum value of the permeability rate of the drug per unit area of the skin, base agent IPM / maximum value of the permeability rate of the drug per unit area of the skin, base agent Liquid paraffin / maximum value of the permeability rate of the drug per unit area of the skin, base agent PG: extirpated hairless mouse dorsal skin, 37° C., up to 24 hours; for maximum value of the permeability rate of the drug per unit area of the skin, base agent IPM: saturated solution in isopropyl myristate (IPM) as donor; for maximum value of the permeability rate of the drug per unit area of the skin, base agent Liquid paraffin: saturated solution in liquid paraffin as donor; for maximum value of the permeability rate of the drug per unit area of the skin, base agent PG: saturated solution in propylene glycol (PG) as donor
# Protocol: Preliminary Test 1 (permeability test through hairless mouse skin)
# A permeability test through hairless mouse skin was conducted for the following 1-12 test solutions:
# First, dorsal skin of a hairless mouse was extirpated, which was set to a flow-through cell (effective area: 1 cm^2) with facing the dermis side to the receptor side, where a water of 37° C. was circulating the periphery of the cell. Next, 1 mL of Test solution 1 was charged in a cell on the stratum corneum side of the skin as a donor solution. While using a mixed solution of 40% (v/v) polyethylene glycol 400/physiological saline as a receptor layer, sampling of the receptor solution was carried out at a speed of 5 mL/hour every 2 hours up to 24 hours. For receptor solutions obtained at respective times, the flow volume was measured precisely and the drug concentration was measured by using high-performance liquid chromatography. From the obtained measurement values of the flow volume and drug concentration, the permeability rate per 1 hour was calculated to obtain the maximum value of the permeability rate of the drug per unit area of the skin.
# [2] = system: yeast-induced paw inflammation and nociception; assay: yeast-induced paw inflammation and nociception test in rats; type: in vivo; conditions: 100 μL of 3% (w/v) solution in acetone applied to footpad for 3 hours; measured 3 hours after yeast injection; p<0.01 vs control
# Source text: Preliminary Test 2 (yeast-induced paw inflammation and nociception test in rats) First, SD male rats with weight of around 130 g were used to measure a pain threshold value (g) by using analgesimeter (Analgesy 7200, Ugo Basile) according to the method of Randall & […]. and […] method for measurement of analgesic activity on inflamed tissue. (1957) Arch. Int. Pharmacodyn. 4, 409-419], while defining removal reaction against pressure irritation to a right hind footpad as the index, and they were grouped such that there was no difference between the average pain threshold values of both groups. […] On the other hand, acetone was applied to the control group. After sufficient drying after the application, the rats were housed in separate cages without covering treatment. At this time, for the purpose of preventing oral drug intake, a collar was attached to all the rats including the control group. After 3 hours from the application described above, valdecoxib remaining at the applied site was wiped off with absorbent cotton having been dipped in slightly warm water and, immediately after the wipe, each 100 μL of a yeast suspension (20% Baker's Yeast) was injected subcutaneously to all the rats including the control group to induce inflammation. […] The obtained results are illustrated in FIG. 1.
# [3] = system: carrageenin-induced paw edema; assay: carrageenin-induced paw edema test in rats; type: in vivo; conditions: 100 μL of 3% (w/v) solution in acetone applied to footpad for 3 hours; measured 3 hours after carrageenin; p<0.01 vs control
# Source text: Preliminary Test 3 (carrageenin-induced paw edema test in rats)
# First, SD male rats with weight of around 110 g were used to measure a paw volume (mL) of a right hind footpad by using a water-replacement type paw volume determining device (Model TK-101 CMP, MUROMACHI KIKAI) according to the method of Fujihira et al. [Fujihira Eichi, Screening no Hoho to Mondaiten—Adjuvant Kansetsuen ni yoru Koenshoyaku no Kenteiho (Methods and Problems of Screening—Assay of Antiinflammatory Agent by Adjuvant Arthritis) (1971) Oyo Yakuri (Pharmacometrics) 5,169-183], and they were grouped such that there was no difference between the average paw volume values of both groups. Next, each 100 μL of a 3% (w/v) solution of valdecoxib in acetone was applied to the right hind footpad. On the other hand, acetone was applied to the control group. After sufficient drying after the application, the rats were housed in separate cages without covering treatment. […] After additional 3 hours, the paw volume at the right hind footpad was measured again to calculate an edema ratio (%) according to the following edema ratio calculation method (calculation formula): Edema ratio (%)=[(paw volume after 3 hours from inflammation (mL)−paw volume at ordinary time (mL))/paw volume at ordinary time (mL))]×100 to evaluate the antiinflammatory effect of valdecoxib. […]
"maximum value of the permeability rate of the drug per unit area of the skin, base agent Acetone [1] [μg/cm^2/hr]","maximum value of the permeability rate of the drug per unit area of the skin, base agent IPM [1] [μg/cm^2/hr]","maximum value of the permeability rate of the drug per unit area of the skin, base agent Liquid paraffin [1] [μg/cm^2/hr]","maximum value of the permeability rate of the drug per unit area of the skin, base agent PG [1] [μg/cm^2/hr]","skin permeability (in words) ([1]; compared with celecoxib and rofecoxib, Table 1)",SMILES,"analgesic action (pain threshold value at right hind footpad, FIG. 1) [2]","antiinflammatory action (edema ratio, FIG. 2) [3]"
0.3,2.04,0.00,0.90,,"Cc1ccc(-c2cc(C(F)(F)F)nn2-c2ccc(S(N)(=O)=O)cc2)cc1 [celecoxib, 4-[5-(4-methylphenyl)-3-(trifluoromethyl)pyrazole-1-yl]benzolsulfonamide]",,
0.09,0.00,0.00,0.00,,"CS(=O)(=O)c1ccc(C2=C(c3ccccc3)C(=O)OC2)cc1 [rofecoxib, 3-phenyl-4-(4-methylsulfonylphenyl)-2(5H)-furanone]",,
0.59,2.97,0.41,4.10,very high skin permeability,"Cc1onc(-c2ccccc2)c1-c1ccc(S(N)(=O)=O)cc1 [valdecoxib, 4-(5-methyl-3-phenylisoxazole-4-yl)benzenesulfonamide]",significant analgesic action,significant antiinflammatory action
